In patent US20260022143A1, “Cyclic Peptide Inhibitors of IL-23” (JANSSEN PHARMACEUTICA NV, priority 2022, published 2026):
Counter-ions that a name gives are not always drawn. Starred links: 1 amine or outer side, 2 acyl side, 3 side chain; linkers in the order of their positions; H or OH if unused. Positions of bridges follow the written chain, without caps; N, C: chain ends. Non-standard residues stand in square brackets, D forms with d. Residues, ends and D or L forms follow the SMILES beside them. *: point of attachment. X68 = COCCOCCOCCOCCOCCOCCC(=O)N(CCCC[C@@H](N[*:1])C(=O)[*:2])C(C)=O; Trp(7-Me) = Cc1cccc2c(C[C@H](N)C(=O)O)c[nH]c12; Hexanoyl(6-NMe3+) = C[N+](C)(C)CCCCCC(=O)*; X23 = Cn1nnc(CC[C@H](N[*:1])C(=O)[*:2])n1; Dab(NMeAc) = CC(=O)N(C)CC[C@H](N)C(=O)O; Pro(4,4-F2) = O=C(O)[C@@H]1CC(F)(F)CN1; X29 = O=C([C@H](CCn1ncnn1)N[*:1])[*:2]; 2Nal = N[C@@H](Cc1ccc2ccccc2c1)C(=O)O; AEF = NCCOc1ccc(C[C@H](N)C(=O)O)cc1; 3Pal = N[C@@H](Cc1cccnc1)C(=O)O; Lys(Me) = CNCCCC[C@H](N)C(=O)O; Pen = CC(C)(S)[C@H](N)C(=O)O; Thp = NC1(C(=O)O)CCOCC1; Me2NCH2CH2 = CN(C)CC*; Tfa = O=C(C(F)(F)F)*; Sar = CNCC(=O)O

Assay: Exposed Polar Surface Area (EPSA)
Assay type: physicochemical
Settings: SFC on Chirex 3014 column; sample 1 mM DMSO stock; read-out: EPSA
Method in brief: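 SFC retention on a Chirex 3014 (S)-valine/(R)-1-(α-naphthyl)ethylamine column, 35 °C, CO2 with MeOH (20 mM ammonium formate) gradient 5–60% at 20%/min, 14 MPa outlet. Retention times converted to EPSA (Å^2) via linear calibration with 8 standards; samples from 1 mM DMSO stock, run in duplicate.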

EPSA [A^2]	SMILES
157	COCCOCCOCCOCCOCCOCCC(=O)N(CCCC[C@H]1NC(=O)[C@H](Cc2c[nH]c3c(C)cccc23)NC(=O)[C@H]([C@@H](C)O)NC(=O)[C@H](CC(N)=O)NC(=O)[C@@H](NC(C)=O)C(C)(C)SSC(C)(C)[C@@H](C(=O)N[C@@H](Cc2ccc(OCCN)cc2)C(=O)N[C@@H](Cc2ccc3ccccc3c2)C(=O)NC2(C(=O)N[C@@H](CCCCNC(C)=O)C(=O)N[C@@H](CC(N)=O)C(=O)N[C@@H](Cc3cccnc3)C(=O)N(C)CC(N)=O)CCOCC2)NC1=O)C(C)=O [compound 78] (Ac-[Pen]NT[Trp(7-Me)][X68][Pen][AEF][2Nal][Thp]K(Ac)N[3Pal][Sar]-NH2; disulfide 1-6)
144	CC(=O)N(C)CCCC[C@@H]1NC(=O)[C@H](Cc2c[nH]c3c(C)cccc23)NC(=O)[C@H]([C@@H](C)O)NC(=O)[C@H](CC(=O)N(C)C)NC(=O)[C@@H](NC(=O)C(F)(F)F)C(C)(C)SSC(C)(C)[C@@H](C(=O)N[C@@H](Cc2ccc(OCCN(C)C)cc2)C(=O)N[C@@H](Cc2ccc3ccccc3c2)C(=O)NC2(C(=O)N[C@@H](CCC(=O)N(C)C)C(=O)N[C@@H](CC(N)=O)C(=O)N[C@@H](Cc3cccnc3)C(=O)N(C)CC(N)=O)CCOCC2)NC1=O [compound 79, CF3CO-Pen(3)-N(N(Me)2)-T-7MeW-K(NMeAc)-Pen(3)-AEF(N(Me)2)-2Nal-THP-Q(N(Me)2)-N-3Pya-Sar-CONH2] (Tfa-[Pen]D(NMe2)T[Trp(7-Me)][Lys(Me)](Ac)[Pen]Y(Me2NCH2CH2)[2Nal][Thp]E(NMe2)N[3Pal][Sar]-NH2; disulfide 1-6 (inferred))
173	CC(=O)NCCCC[C@@H]1NC(=O)[C@H](Cc2c[nH]c3c(C)cccc23)NC(=O)[C@H]([C@@H](C)O)NC(=O)[C@H](CC(N)=O)NC(=O)[C@@H](NC(=O)CCCCC[N+](C)(C)C)C(C)(C)SSC(C)(C)[C@@H](C(=O)N[C@@H](Cc2ccc(OCCN)cc2)C(=O)N[C@@H](Cc2ccc3ccccc3c2)C(=O)NC2(C(=O)N[C@@H](CCC(=O)O)C(=O)N[C@@H](CC(N)=O)C(=O)N[C@@H](Cc3cccnc3)C(=O)N(C)CC(N)=O)CCOCC2)NC1=O [compound 81] ({Hexanoyl(6-NMe3+)}-[Pen]NT[Trp(7-Me)]K(Ac)[Pen][AEF][2Nal][Thp]EN[3Pal][Sar]-NH2; disulfide 1-6 (inferred))
167	CC(=O)NCCCC[C@@H]1NC(=O)[C@H](Cc2c[nH]c3c(C)cccc23)NC(=O)[C@H]([C@@H](C)O)NC(=O)[C@H](CC(N)=O)NC(=O)[C@@H](NC(=O)[C@@H](CCCCNC(=O)CCCCC[N+](C)(C)C)NC(C)=O)C(C)(C)SSC(C)(C)[C@@H](C(=O)N[C@@H](Cc2ccc(OCCN)cc2)C(=O)N[C@@H](Cc2ccc3ccccc3c2)C(=O)NC2(C(=O)N[C@@H](CCC(=O)O)C(=O)N[C@@H](CC(N)=O)C(=O)N[C@@H](Cc3cccnc3)C(=O)N(C)CC(N)=O)CCOCC2)NC1=O [compound 83] (Ac-[dK](Hexanoyl(6-NMe3+))[Pen]NT[Trp(7-Me)]K(Ac)[Pen][AEF][2Nal][Thp]EN[3Pal][Sar]-NH2; disulfide 2-7 (inferred))

Further lines, the compound ahead of its results:

SMILES	EPSA [A^2]
COCCOCCOCCOCCOCCOCCNCCOc1ccc(C[C@H](NC(=O)[C@H]2NC(=O)[C@H](CCCCNC(C)=O)NC(=O)[C@H](Cc3c[nH]c4c(C)cccc34)NC(=O)[C@H]([C@@H](C)O)NC(=O)[C@H](CC(N)=O)NC(=O)[C@@H](NC(C)=O)C(C)(C)SSC2(C)C)C(=O)N[C@@H](Cc2ccc3ccccc3c2)C(=O)NC2(C(=O)N[C@@H](CCCCNC(C)=O)C(=O)N[C@@H](CC(N)=O)C(=O)N[C@@H](Cc3cccnc3)C(=O)N(C)CC(N)=O)CCOCC2)cc1 [compound 65]	154
CC(=O)N(C)CCCC[C@@H]1NC(=O)[C@H](Cc2c[nH]c3c(C)cccc23)NC(=O)[C@H]([C@@H](C)O)NC(=O)[C@H](CC(=O)N(C)C)NC(=O)[C@@H](NC(=O)C(F)(F)F)C(C)(C)SSC(C)(C)[C@@H](C(=O)N[C@@H](Cc2ccc(OCCN(C)C)cc2)C(=O)N[C@@H](Cc2ccc3ccccc3c2)C(=O)NC2(C(=O)N[C@@H](CCCCN(C)C(C)=O)C(=O)N[C@@H](CC(N)=O)C(=O)N[C@@H](Cc3cccnc3)C(=O)N(C)CC(=O)N(C)C)CCOCC2)NC1=O [compound 66, CF3CO-Pen(3)-N(N(Me)2)-T-7MeW-K(NMeAc)-Pen(3)-AEF(N(Me)2)-2Nal-THP-K(NMeAc)-N-3Pya-Sar-CON(Me)2] (Tfa-[Pen]D(NMe2)T[Trp(7-Me)][Lys(Me)](Ac)[Pen]Y(Me2NCH2CH2)[2Nal][Thp][Lys(Me)](Ac)N[3Pal][Sar]-NMe2; disulfide 1-6 (inferred))	138
CC(=O)N(C)CCCC[C@@H]1NC(=O)[C@H](Cc2c[nH]c3c(C)cccc23)NC(=O)[C@H]([C@@H](C)O)NC(=O)[C@H](CC(N)=O)NC(=O)[C@@H](NC(=O)C(F)(F)F)C(C)(C)SSC(C)(C)[C@@H](C(=O)N[C@@H](Cc2ccc(OCCN)cc2)C(=O)N[C@@H](Cc2ccc3ccccc3c2)C(=O)NC2(C(=O)N[C@@H](CCCCN(C)C(C)=O)C(=O)N[C@@H](CC(N)=O)C(=O)N[C@@H](Cc3cccnc3)C(=O)N(C)CC(N)=O)CCOCC2)NC1=O [compound 69] (Tfa-[Pen]NT[Trp(7-Me)][Lys(Me)](Ac)[Pen][AEF][2Nal][Thp][Lys(Me)](Ac)N[3Pal][Sar]-NH2; disulfide 1-6)	161
CC(=O)NCCCC[C@H](NC(=O)C1(NC(=O)[C@H](Cc2ccc3ccccc3c2)NC(=O)[C@H](Cc2ccc(OCCN)cc2)NC(=O)[C@H]2NC(=O)[C@H](CCN(C)C(C)=O)NC(=O)[C@H](Cc3c[nH]c4c(C)cccc34)NC(=O)[C@H]([C@@H](C)O)NC(=O)[C@H](CC(N)=O)NC(=O)[C@@H](NC(=O)C(F)(F)F)C(C)(C)SSC2(C)C)CCOCC1)C(=O)N[C@@H](CC(N)=O)C(=O)N[C@@H](Cc1cccnc1)C(=O)N(C)CC(N)=O [compound 70] (Tfa-[Pen]NT[Trp(7-Me)][Dab(NMeAc)][Pen][AEF][2Nal][Thp]K(Ac)N[3Pal][Sar]-NH2; disulfide 1-6)	157
CC(=O)NCCCC[C@@H]1NC(=O)[C@H](Cc2c[nH]c3c(C)cccc23)NC(=O)[C@H]([C@@H](C)O)NC(=O)[C@H](CC(N)=O)NC(=O)[C@@H](NC(=O)C(F)(F)F)C(C)(C)SSC(C)(C)[C@@H](C(=O)N[C@@H](Cc2ccc(OCCN)cc2)C(=O)N[C@@H](Cc2ccc3ccccc3c2)C(=O)NC2(C(=O)N[C@@H](CCC(=O)N(C)C)C(=O)N[C@@H](CC(N)=O)C(=O)N[C@@H](Cc3cccnc3)C(=O)N(C)CC(N)=O)CCOCC2)NC1=O [compound 72] (Tfa-[Pen]NT[Trp(7-Me)]K(Ac)[Pen][AEF][2Nal][Thp]E(NMe2)N[3Pal][Sar]-NH2; disulfide 1-6 (inferred))	160
CC(=O)NCCCC[C@@H]1NC(=O)[C@H](Cc2c[nH]c3c(C)cccc23)NC(=O)[C@H]([C@@H](C)O)NC(=O)[C@H](CC(N)=O)NC(=O)[C@@H](NC(=O)C(F)(F)F)C(C)(C)SSC(C)(C)[C@@H](C(=O)N[C@@H](Cc2ccc(OCCN)cc2)C(=O)N[C@@H](Cc2ccc3ccccc3c2)C(=O)NC2(C(=O)N[C@@H](CCCCNC(C)=O)C(=O)N[C@@H](CC(N)=O)C(=O)N[C@@H](Cc3cccnc3)C(=O)N3CC(F)(F)C[C@H]3C(=O)N(C)C)CCOCC2)NC1=O [compound 73] (Tfa-[Pen]NT[Trp(7-Me)]K(Ac)[Pen][AEF][2Nal][Thp]K(Ac)N[3Pal][Pro(4,4-F2)]-NMe2; disulfide 1-6 (inferred))	155
CC(=O)NCCCC[C@@H]1NC(=O)[C@H](Cc2c[nH]c3c(C)cccc23)NC(=O)[C@H]([C@@H](C)O)NC(=O)[C@H](CC(N)=O)NC(=O)[C@@H](NC(=O)C(F)(F)F)C(C)(C)SSC(C)(C)[C@@H](C(=O)N[C@@H](Cc2ccc(OCCN)cc2)C(=O)N[C@@H](Cc2ccc3ccccc3c2)C(=O)NC2(C(=O)N[C@@H](CCCCNC(C)=O)C(=O)N[C@@H](CC(N)=O)C(=O)N[C@@H](Cc3cccnc3)C(=O)N(C)CC(=O)N(C)C)CCOCC2)NC1=O [compound 74] (Tfa-[Pen]NT[Trp(7-Me)]K(Ac)[Pen][AEF][2Nal][Thp]K(Ac)N[3Pal][Sar]-NMe2; disulfide 1-6 (inferred))	154
CC(=O)N(C)CC[C@@H]1NC(=O)[C@H](Cc2c[nH]c3c(C)cccc23)NC(=O)[C@H]([C@@H](C)O)NC(=O)[C@H](CC(N)=O)NC(=O)[C@@H](NC(=O)C(F)(F)F)C(C)(C)SSC(C)(C)[C@@H](C(=O)N[C@@H](Cc2ccc(OCCN)cc2)C(=O)N[C@@H](Cc2ccc3ccccc3c2)C(=O)NC2(C(=O)N[C@@H](CCC(=O)N(C)C)C(=O)N[C@@H](CC(N)=O)C(=O)N[C@@H](Cc3cccnc3)C(=O)N(C)CC(N)=O)CCOCC2)NC1=O [compound 75] (Tfa-[Pen]NT[Trp(7-Me)][Dab(NMeAc)][Pen][AEF][2Nal][Thp]E(NMe2)N[3Pal][Sar]-NH2; disulfide 1-6)	157
CC(=O)NCCCC[C@@H]1NC(=O)[C@H](Cc2c[nH]c3c(C)cccc23)NC(=O)[C@H]([C@@H](C)O)NC(=O)[C@H](CC(N)=O)NC(=O)[C@@H](NC(=O)C(F)(F)F)C(C)(C)SSC(C)(C)[C@@H](C(=O)N[C@@H](Cc2ccc(OCCN)cc2)C(=O)N[C@@H](Cc2ccc3ccccc3c2)C(=O)NC2(C(=O)N[C@@H](CCc3nnn(C)n3)C(=O)N[C@@H](CC(N)=O)C(=O)N[C@@H](Cc3cccnc3)C(=O)N(C)CC(N)=O)CCOCC2)NC1=O [compound 76] (Tfa-[Pen]NT[Trp(7-Me)]K(Ac)[Pen][AEF][2Nal][Thp][X23]N[3Pal][Sar]-NH2; disulfide 1-6)	161
CC(=O)NCCCC[C@@H]1NC(=O)[C@H](Cc2c[nH]c3c(C)cccc23)NC(=O)[C@H]([C@@H](C)O)NC(=O)[C@H](CC(N)=O)NC(=O)[C@@H](NC(=O)C(F)(F)F)C(C)(C)SSC(C)(C)[C@@H](C(=O)N[C@@H](Cc2ccc(OCCN)cc2)C(=O)N[C@@H](Cc2ccc3ccccc3c2)C(=O)NC2(C(=O)N[C@@H](CCn3ncnn3)C(=O)N[C@@H](CC(N)=O)C(=O)N[C@@H](Cc3cccnc3)C(=O)N(C)CC(N)=O)CCOCC2)NC1=O [compound 77] (Tfa-[Pen]NT[Trp(7-Me)]K(Ac)[Pen][AEF][2Nal][Thp][X29]N[3Pal][Sar]-NH2; disulfide 1-6)	161
